Assay results reported in patent publication US6780633B2, “Methods for producing optically active amino acids” (Sumitomo Chemical Company, Limited, priority 1999, dated 2004).

What was measured:
Format in all cases: cell-based
[1] = tested on: Flavimonas oryzihabitans JCM2952; assay: effect of aminotransferase inhibitor on production of L-p-chlorophenylalanine from D-form by cells; conditions: inhibitor final 1 mM; 30° C., 2 hours; absence of inhibitor = 100%
Description: (§1) A 500 mL Sakaguchi flask containing 100 ml of a sterilized medium (pH 7.0) containing 1.0% (w/v) glycerol, 0.2% (w/v) polypeptone (Nihon Pharmaceutical Co., Ltd.), 0.3% (w/v) meat extract (Kyokuto Pharmaceutical Ind., Co., Ltd.), 0.3% (w/v) yeast extract (Difco), 0.1% (w/v) dipotassium phosphate, 0.1% (w/v) potassium mono phosphate, 0.03% (w/v) magnesium sulfate heptahydrate was inoculated with 1 mL of a culture of Nocardia diaphanozonaria strain JCM3208 which had previously been cultivated in a medium of the similar composition, and incubated at 30° C. for 2 days with a reciprocal shaking. 80 ml of this culture was subjected to centrifugation (10000 g, 10 minutes) to collect wet cells. The collected wet cells were washed twice with 80 ml of 100 mM potassium phosphate buffer (pH 7.0) and the wet cells thus obtained was suspended in 4 mL of 100 mM potassium phosphate buffer (pH 7.0) to obtain a cell suspension.
(§2) 0.2 ml of the cell suspension was combined with 1.8 mL of 100 mM potassium phosphate buffer (pH7.0) containing D-p-chlorophenylalanine at 5.5 mM and an aminotransferase inhibitor shown in Table 6 at 1.1 mM, and incubated at 30° C. for 2 hours with a reciprocal shaking at 250 rpm. Each reaction mixture was analyzed at an early stage of the reaction by HPLC to quantify L-p-chlorophenylalanine produced by the reaction. The results are represented as the relative values each based on 100% production of L-p-chlorophenylalanine in the absence of the respective aminotransferase inhibitor.
(§3) The reaction was performed similarly as in Example 6 except for using each of the microorganisms shown in Table 7 instead of Nocardia diaphanozonaria strain JCM3208.

[2] = tested on: Pseudomonas chlororaphis IFO3521; assay: as above; conditions: inhibitor final 1 mM; 30° C., 2 hours; absence of inhibitor = 100%
Description: as §1, §2, §3

[3] = tested on: Klebsiella planticola JCM7251; assay: as above; conditions: inhibitor final 1 mM; 30° C., 2 hours; absence of inhibitor = 100%
Description: as §1, §2, §3

[4] = tested on: Rhizobium meliloti IFO14782; assay: as above; conditions: inhibitor final 1 mM; 30° C., 2 hours; absence of inhibitor = 100%
Description: as §1, §2, §3

[5] = tested on: Pseudomonas oleovorans IFO13583; assay: as above; conditions: inhibitor final 1 mM; 30° C., 2 hours; absence of inhibitor = 100%
Description: as §1, §2, §3

[6] = tested on: Pseudomonas taetrolens IFO3460; assay: as above; conditions: inhibitor final 1 mM; 30° C., 2 hours; absence of inhibitor = 100%
Description: as §1, §2, §3

[7] = tested on: Saccharopolyspora hirsuta JCM9109; assay: effect of aminotransferase inhibitor on production of L-p-chlorophenylalanine from D-form by cells, at equilibrium; conditions: inhibitor final 1 mM; 30° C., 24 hours (reaction equilibrated); absence of inhibitor = 100%
Description: as §1, §2
(§4) The reaction was performed similarly as in Example 6 except for using each of the microorganisms shown in Table 8 instead of Nocardia diaphanozonaria strain JCM3208 and except that the reaction time was 24 hours (when the reaction was equilibrated).

[8] = tested on: Pseudomonas oxalaticus IFO13593; assay: as above; conditions: inhibitor final 1 mM; 30° C., 24 hours (reaction equilibrated); absence of inhibitor = 100%
Description: as §1, §2, §4

[9] = tested on: Streptomyces roseus IFO12818; assay: as above; conditions: inhibitor final 1 mM; 30° C., 24 hours (reaction equilibrated); absence of inhibitor = 100%
Description: as §1, §2, §4

[10] = tested on: Arthrobacter pascens IFO12139; assay: as above; conditions: inhibitor final 1 mM; 30° C., 24 hours (reaction equilibrated); absence of inhibitor = 100%
Description: as §1, §2, §4

[11] = tested on: Nocardia diaphanozonaria strain JCM3208; assay: effect of aminotransferase inhibitor on production of L-p-chlorophenylalanine from D-form by cells; conditions: inhibitor final concentration 1 mM; D-p-chlorophenylalanine 5.5 mM; 30° C., 2 hours (early stage); absence of inhibitor = 100%
Description: as §1, §2

Row | SMILES | Relative value (%) of production of L-p-chlorophenylalanine [1] | Relative value (%) of production of L-p-chlorophenylalanine [2] | Relative value (%) of production of L-p-chlorophenylalanine [3] | Relative value (%) of production of L-p-chlorophenylalanine [4] | Relative value (%) of production of L-p-chlorophenylalanine [5] | Relative value (%) of production of L-p-chlorophenylalanine [6] | Relative value (%) of production of L-p-chlorophenylalanine [7] | Relative value (%) of production of L-p-chlorophenylalanine [8] | Relative value (%) of production of L-p-chlorophenylalanine [9] | Relative value (%) of production of L-p-chlorophenylalanine [10] | Relative value (%) of production of L-p-chlorophenylalanine [11]
1 | NC1C=CC=C(C(=O)O)C1 (racemic) [DL-Gabaculine] | 105% | 72% | 102% | 88% | 87% | 75% | 97% | 105% | 97% | 96% | 92%
2 | N[C@H](CCl)C(=O)O [β-Chloro-D-alanine] | 144% | 85% | 90% | 108% | 91% | 84% | 99% | 124% | 114% | 83% | 108%
3 | N[C@@H](CCl)C(=O)O [β-Chloro-L-alanine] | 92% | 102% | 92% | 96% | 94% | 87% | 101% | 91% | 95% | 84% | 121%
